Assay [1] has as its target T1, Heat shock factor protein 1 (Mus musculus, UniProt P38532).
T1 sequence (P38532 whole entry): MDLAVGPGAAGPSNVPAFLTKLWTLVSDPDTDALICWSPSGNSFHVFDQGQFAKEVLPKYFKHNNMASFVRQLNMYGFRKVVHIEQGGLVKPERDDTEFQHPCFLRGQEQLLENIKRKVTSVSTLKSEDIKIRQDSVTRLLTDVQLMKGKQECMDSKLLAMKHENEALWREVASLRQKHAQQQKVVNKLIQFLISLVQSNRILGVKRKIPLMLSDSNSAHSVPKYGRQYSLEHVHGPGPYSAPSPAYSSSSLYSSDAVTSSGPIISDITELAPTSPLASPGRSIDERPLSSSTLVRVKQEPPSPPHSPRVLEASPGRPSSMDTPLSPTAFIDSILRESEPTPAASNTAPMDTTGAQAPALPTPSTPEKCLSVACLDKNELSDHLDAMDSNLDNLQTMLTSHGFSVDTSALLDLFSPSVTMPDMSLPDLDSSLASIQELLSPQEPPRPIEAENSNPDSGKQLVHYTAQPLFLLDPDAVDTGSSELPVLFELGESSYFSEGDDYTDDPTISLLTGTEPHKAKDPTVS
Nature of the assay: inhibition of MG132-induced HSE-luciferase signal, confirmation, cell-based, NIH3T3, luminescence, dose retest (AID 2382).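 Also: NIH3T3 fibroblasts with HSF1-driven luciferase reporter stressed by proteasome inhibitor MG132; luminescence from HSF1-driven luciferase expression after 8 hours of MG132 stress.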 Type of assay: functional.

The target of assay [2] is T2, Corticotropin-releasing factor receptor 2/Corticotropin-releasing factor-binding protein (Homo sapiens, UniProt P24387+Q13324).
T2 sequence (Q13324 whole entry): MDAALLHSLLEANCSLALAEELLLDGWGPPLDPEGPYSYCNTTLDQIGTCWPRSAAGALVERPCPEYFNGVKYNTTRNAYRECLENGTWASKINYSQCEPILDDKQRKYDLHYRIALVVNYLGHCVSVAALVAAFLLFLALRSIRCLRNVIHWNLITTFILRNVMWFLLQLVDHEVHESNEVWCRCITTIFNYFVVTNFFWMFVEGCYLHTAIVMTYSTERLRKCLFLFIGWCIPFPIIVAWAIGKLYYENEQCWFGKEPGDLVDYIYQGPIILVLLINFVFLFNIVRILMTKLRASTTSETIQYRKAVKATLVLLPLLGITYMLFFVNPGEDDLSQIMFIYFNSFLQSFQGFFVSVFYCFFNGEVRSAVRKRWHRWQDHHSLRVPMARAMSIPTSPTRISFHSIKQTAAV
T2 sequence (P24387 whole entry): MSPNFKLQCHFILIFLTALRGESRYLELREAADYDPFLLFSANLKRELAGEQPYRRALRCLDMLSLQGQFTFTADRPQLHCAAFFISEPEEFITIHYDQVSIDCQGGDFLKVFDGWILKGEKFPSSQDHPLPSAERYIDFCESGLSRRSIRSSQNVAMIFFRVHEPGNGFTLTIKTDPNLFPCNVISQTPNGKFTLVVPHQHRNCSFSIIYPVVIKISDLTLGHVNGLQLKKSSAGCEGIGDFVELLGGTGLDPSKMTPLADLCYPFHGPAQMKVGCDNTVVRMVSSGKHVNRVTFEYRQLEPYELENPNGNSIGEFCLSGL
Briefly: activators of CRF receptor 2 with binding protein – uHTS hits, confirmation (AID 602473). It is filed as functional. The note with it: read-out: EC50_Mean.

Assay [3] has as its target T2, Corticotropin-releasing factor receptor 2/Corticotropin-releasing factor-binding protein. Briefly: Dose Response confirmation of uHTS hits for small molecule antagonists of the CRF-binding protein and CRF-R2 receptor complex. It is filed as functional. The note with it: read-out: IC50_Mean.
Assay [4] addresses T1, Heat shock factor protein 1. Nature of the assay: HSF1 potentiators in luciferase reporter cells, confirmation, cell-based, NIH3T3, luminescence, dose retest (AID 435004).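 Also: stress induced by proteasome inhibitor MG132 added 30 min after compound; luciferase reporter driven by HSF1 response element in NIH3T3 cells; actives raise luminescence as potentiators of the MG132 stress response.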 Type of assay: functional. (A reporter such as luciferase makes a cellular process visible.)
In assay [5] the test system is Streptococcus sp. 'group A'. Nature of the assay: growth inhibition of control SK(-) GAS strain, dose response, counter-screen for streptokinase expression inhibitor project, luminescence, kanamycin, BacTiterGlo, confirmation (AID 1900). Type of assay: functional, organism-based. (A counterscreen serves to expose hits that act by an unwanted route or on another target.)

The test system of the next assay is Streptococcus. Briefly: Group A Streptococcus viability loss, dose response, counter-screen for streptokinase expression inhibitor project, luminescence, BacTiterGlo (AID 1915).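 Also: potency for reduction of bacterial viability or growth.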 Type of assay: functional, organism-based.
The target of the next assay is Cytochrome P450 2D6 (Homo sapiens, UniProt P10635).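 Also: CYP2D6 member of a cytochrome P450 panel assay.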
In the next assay the target is T3, Cytochrome P450 1A2 (Homo sapiens, UniProt P05177).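 Also: PubChem cytochrome P450 panel assay, CYP1A2 panel member.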
T3 sequence (P05177 whole entry): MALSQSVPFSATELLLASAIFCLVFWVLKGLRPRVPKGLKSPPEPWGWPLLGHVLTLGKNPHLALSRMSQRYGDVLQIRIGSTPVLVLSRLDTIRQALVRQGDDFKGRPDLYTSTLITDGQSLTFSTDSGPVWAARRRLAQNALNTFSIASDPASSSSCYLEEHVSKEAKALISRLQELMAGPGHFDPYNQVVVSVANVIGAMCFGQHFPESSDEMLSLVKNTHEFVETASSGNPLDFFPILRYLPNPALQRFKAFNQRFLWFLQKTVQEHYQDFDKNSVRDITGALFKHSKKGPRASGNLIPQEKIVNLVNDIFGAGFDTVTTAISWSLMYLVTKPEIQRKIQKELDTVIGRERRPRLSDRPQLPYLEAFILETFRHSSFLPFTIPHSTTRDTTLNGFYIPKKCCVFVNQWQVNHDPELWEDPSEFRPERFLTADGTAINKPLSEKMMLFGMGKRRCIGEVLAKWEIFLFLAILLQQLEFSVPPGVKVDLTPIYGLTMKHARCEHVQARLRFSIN

Another assay concerns the target Cytochrome P450 2C9 (Homo sapiens, UniProt P11712).
A short description of assay [6]: HEp-2 cell cytotoxicity, dose response, cytotoxicity control for RSV inhibitor project, HTS (AID 2410). Type of assay: functional. The note with it: human respiratory syncytial virus.
Assay [7] in a line: cytotoxicity toward NIH3T3 fibroblasts, dose response, counter-screen, cell-based, ATP luminescence, mouse fibroblasts (AID 2010).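 Also: cells exposed to compound for about 90 hours before reading.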 It is filed as functional.
Assay [8] in a line: inhibitors of intracellular T. cruzi replication, confirmation, NIH3T3 host cells, beta-gal luminescence (AID 2044).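 Also: intracellular parasites grown in NIH/3T3 mouse fibroblasts as host cells; luminescent beta-galactosidase reporter signal from transgenic T. cruzi replicating inside host cells; inhibitors lower the luminescence signal.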 Type of assay: functional, cell-based.

Activity calls are given as the source filed them. Rule as the data show it, for most assays here: actives have a measured EC50 and inactives only a lower limit.

Sequence of Cytochrome P450 2D6 (P10635 whole entry): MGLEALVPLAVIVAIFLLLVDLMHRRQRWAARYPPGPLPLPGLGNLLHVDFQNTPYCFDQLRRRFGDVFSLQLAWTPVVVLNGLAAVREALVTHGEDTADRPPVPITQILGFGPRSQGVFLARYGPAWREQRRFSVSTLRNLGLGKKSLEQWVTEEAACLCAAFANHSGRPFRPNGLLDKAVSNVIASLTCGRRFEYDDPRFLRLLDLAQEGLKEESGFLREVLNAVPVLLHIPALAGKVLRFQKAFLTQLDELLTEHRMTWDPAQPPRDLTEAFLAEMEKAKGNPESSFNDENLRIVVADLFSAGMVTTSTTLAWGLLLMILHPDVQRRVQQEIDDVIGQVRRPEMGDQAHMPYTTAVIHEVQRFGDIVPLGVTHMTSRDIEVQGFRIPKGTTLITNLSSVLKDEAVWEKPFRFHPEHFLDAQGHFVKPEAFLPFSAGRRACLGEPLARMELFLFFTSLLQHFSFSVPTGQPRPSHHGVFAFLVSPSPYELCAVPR
Sequence of Cytochrome P450 2C9 (P11712 whole entry): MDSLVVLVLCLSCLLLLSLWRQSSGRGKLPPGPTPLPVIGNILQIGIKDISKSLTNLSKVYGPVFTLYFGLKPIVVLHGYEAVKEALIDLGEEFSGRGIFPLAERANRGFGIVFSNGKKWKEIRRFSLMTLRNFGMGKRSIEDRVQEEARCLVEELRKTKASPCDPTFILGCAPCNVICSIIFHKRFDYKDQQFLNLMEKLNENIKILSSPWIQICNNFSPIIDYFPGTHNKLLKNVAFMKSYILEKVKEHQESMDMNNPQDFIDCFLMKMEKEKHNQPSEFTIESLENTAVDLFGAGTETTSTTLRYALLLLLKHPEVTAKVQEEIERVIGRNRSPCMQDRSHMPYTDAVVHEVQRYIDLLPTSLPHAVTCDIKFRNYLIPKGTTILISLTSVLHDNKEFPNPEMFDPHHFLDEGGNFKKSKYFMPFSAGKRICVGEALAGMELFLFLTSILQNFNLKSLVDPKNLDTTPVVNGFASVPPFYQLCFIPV

For the molecule `COc1ccc(NC(S)=Nc2ccc(C)c(S(=O)(=O)N3CCCCC3)c2)cc1`, the EC50 in assay [1] is given as > 195 µM (not active).

For `COc1ccc(CC(=O)NC(=S)Nc2cccc(C)c2)cc1`, the EC50 in assay [2] is 9.53 µM (active). Take `O=C(CCSc1ccc(Br)cc1)Nc1cccnc1`: the IC50 in [3] is > 47.1 µM (inactive). Besides, the EC50 in [2] is > 53 µM (inactive). For `Cc1[nH]c2ccccc2c1SCc1nnc(SCc2ccccc2)n1C`, in that order: > 47.1 µM (inactive) and > 53 µM (inactive). As to `COc1ccc(C(=O)Nc2cc(C(F)(F)F)ccc2-n2cnc3ccccc32)cc1`, the EC50 in assay [4] was > 260 µM (inactive). As for `COc1ccc(N2CCN(C(=O)c3ccc(NS(=O)(=O)c4ccccc4)cc3)CC2)cc1`, the EC50 in assay [1] was > 195 µM (not active).

Consider `Cc1cccc(NC(S)=Nc2ccc(Cl)c(Cl)c2)c1`, for which the EC50 was 11.5 µM (active) in assay [5] and > 150 µM (not active) with Streptococcus. `Cc1ccc(/C=C2/NC(=O)N(Cc3ccc(Br)cc3)C2=O)o1`: the EC50 in assay [4] is > 260 µM (inactive). Take `Cc1c(Cl)c([N+](=O)[O-])nn1CC(=O)NC1CCCCC1`: in assay [3], the IC50 was > 47.1 µM (inactive). Besides, the EC50 in assay [2] is > 53 µM (inactive). On to `CCN(C(=O)c1cc2c(O)nc3ccc(C)cc3c2s1)c1ccc(F)cc1`, for which the EC50 in [1] was > 195 µM (not active).

Regarding `CCC(N=C(S)NC1CCCCC1)c1ccccc1` (centres undefined), in assay [1], the EC50 is > 195 µM (not active). Same read-out and setting: in the case of `Cc1ccc2c(c1)N(C(=O)CCC(=O)N1CCC3(CC1)OCCO3)CCO2` it was > 195 µM (not active). `COc1ccc(NC(=O)CN(C)S(=O)(=O)c2ccc(Br)s2)cc1OC`: the EC50 in assay [4] was > 260 µM (inactive). Consider `CC(C)OC(=O)c1cc2c(ccn2C)n1CC(=O)N1CCC(Cc2ccccc2)CC1`, for which the AC50 on Cytochrome P450 2D6 is 20 µM (inconclusive); at Cytochrome P450 1A2 it was 25.1 µM (inconclusive). In the case of `N#Cc1cccc(NC(=O)N2CCCC3(CCN(C(=O)c4cccc(F)c4)CC3)C2)c1`, the results for the AC50 on Cytochrome P450 2D6, on Cytochrome P450 1A2 and at Cytochrome P450 2C9 were 39.8 µM (inconclusive), 12.6 µM (inconclusive) and 31.6 µM (inconclusive), respectively. For `COc1ccc2nc(NC(=O)C3CCCN(S(=O)(=O)c4cccc5nonc45)C3)sc2c1` (centres undefined), in assay [6], the CC50 is > 50 µM (active). Consider `O=C(NCc1nnc2c3ccccc3c(-c3ccccc3)nn12)c1ccc(Cl)cc1`, for which the CC50 in assay [6] was 7.36 µM (active).

Turning to `CCC1=C(OC(=O)N(CC)CC)N2C(=O)O/C(=N\CC3CC3)[C@]2(Cc2ccccc2)[C@H]2C1=CC[C@H]1C(=O)N(c3ccccc3)C(=O)[C@H]12`, in assay [6], the CC50 is 36.7 µM (active). In the case of `NC(=O)CSc1nnc([C@@H](N)Cc2c[nH]c3ccccc23)o1`, the EC50 in assay [1] was > 195 µM (not active). Still for that read-out and setting: as for `COc1ccc(C(=O)Nc2ccc(OCc3ccccc3)cc2)cc1[N+](=O)[O-]`, the figure is 15.2 µM (active). For the molecule `CO[C@H]1C=CO[C@@]2(C)Oc3c(C)c(O)c4c(O)c(c5c(nc6cc(C)ccn65)c4c3C2=O)NC(=O)C(C)=CC=C[C@H](C)[C@H](O)[C@@H](C)[C@@H](O)[C@@H](C)[C@H](OC(C)=O)[C@@H]1C`, the EC50 in assay [5] was < 0.06 µM (active); in the assay on Streptococcus, 0.071 µM (active). For `CN(CCC1CCCCO1)C(=O)CCc1nnc(CCCCc2ccccc2)o1` (centres undefined), the EC50 in [4] was 242 µM (active). Take `Fc1cccc(F)c1-c1nc(-c2ccncc2)no1`: the CC50 in assay [6] was 38 µM (active). In the case of `COc1ccccc1N1CCN(C2CCCN(C(=O)c3cc(C4CC4)on3)C2)CC1` (centres undefined), in assay [3], the IC50 is > 47.1 µM (inactive). Further, the EC50 in assay [2] was > 53 µM (inactive). With `Cc1cc(C)n(-c2ccc3nnc(C)n3n2)n1`, the CC50 in assay [6] was 22 µM (active). `O=C1CCN(C(=O)Nc2ccccc2Cl)N1`: the EC50 in [4] was > 260 µM (inactive). Turning to `Cc1ccc(OCCOCCn2cnc3ccccc3c2=O)cc1C`, the CC50 in assay [6] is 23.3 µM (active). Regarding `CCn1c(CNC(C)=O)nnc1SCC(=O)c1ccc(Br)cc1`, the EC50 in assay [4] was > 260 µM (inactive). `Cc1ccc(S(=O)(=O)N/N=C\c2cn(-c3ccccc3)nc2-c2ccccc2)cc1`: in assay [6], the CC50 was 13.2 µM (active). Consider `Cc1ccc(CN2CC(=O)N3[C@H]4c5cc(Cl)ccc5OC[C@@H]4[C@H](c4ccccc4)[C@]3(C)C2=O)cc1`, for which the IC50 in [3] is > 47.1 µM (inactive). In addition, the EC50 in [2] was > 53 µM (inactive).

For `CC(C)CNP(=S)(c1ccccc1)C(C)(C)C` (centres undefined), the IC50 in [3] was > 47.1 µM (inactive). In [2], the EC50 was > 53 µM (inactive). In the case of `Cc1csc(NC(=O)Cc2ccccc2[N+](=O)[O-])n1`, the EC50 in [2] is > 53 µM (inactive). On the same count and under the same terms, in the case of `c1ccc(CCNc2nc3ccccc3n3nnnc23)cc1` it was > 53 µM (inactive).

Consider `Clc1ccc(CSc2nnc(-c3sccc3-n3cccc3)o2)cc1`, for which the EC50 in assay [4] is > 260 µM (inactive). Further, the AC50 on Cytochrome P450 2D6 was 11.2 µM (inconclusive); at Cytochrome P450 2C9, 14.1 µM (inconclusive).

As to `Cc1ccc(S(=O)(=O)NNC(=O)c2cnn(-c3ccc(Cl)cc3)c2C(F)(F)F)cc1`, the EC50 in assay [4] was > 260 µM (inactive). Regarding `CCOc1ccccc1Nc1nc(-c2sc(NC(=O)c3ccccc3)nc2C)cs1`, the AC50 at Cytochrome P450 2D6 is 20 µM (inconclusive); at Cytochrome P450 1A2, 6.31 µM (inconclusive). Turning to `O=C(NCCc1cn[nH]c1)C1CCC(=O)N(CCc2cccc(F)c2)C1` (centres undefined), the IC50 in [3] was > 47.1 µM (inactive). Further, the EC50 in assay [2] is > 53 µM (inactive).

For the molecule `O=C(Nc1cccc2ccccc12)N1CC=CCC1`, in assay [3], the IC50 was < 0.368 µM (active). Further, in assay [2], the EC50 is > 53 µM (inactive). `O=C(c1cc(C(F)(F)F)cc(C(F)(F)F)c1)N1CCC[C@@]2(CCN(c3ccccn3)C2)C1`: the AC50 on Cytochrome P450 2D6 is 20 µM (inconclusive); on Cytochrome P450 1A2, 25.1 µM (inconclusive). As for `Cc1ccc(C(=O)N2CCN(C(=O)CN3CCOCC3)C2)cc1`, the IC50 in [3] was > 47.1 µM (inactive). The EC50 in assay [2] was > 53 µM (inactive). As to `Cc1ccc(S(=O)(=O)CCN2CCN(c3ccccc3)CC2)cc1`, in [4], the EC50 was > 260 µM (inactive). Take `CCOC(=O)c1c(-c2ccc(OC)cc2)csc1NC(=O)CNCc1ccco1`: the IC50 in assay [3] was > 47.1 µM (inactive). For the same molecule, in [2], the EC50 is > 53 µM (inactive). `CCOc1cc(C)c(C(C)C)cc1S(=O)(=O)n1cnc(C)c1`: the figures for the EC50 in assay [7], in assay [8] and in assay [2] were 8.49 µM (active), 1.53 µM (active) and > 53 µM (inactive), respectively.

As a reminder, the AC50 is the concentration at which the activity in the assay is half-maximal. A word on the CC50: it is the concentration giving 50% cytotoxicity.
